Values quoted from earlier work as cited in patent US12636282B1 (priority 2020, dated 2026).
Where two headings read alike, the source gives them in different places.

Assays:
influenza = details: NAC 600 mg twice a day for 6 months; 79% with placebo
[1] = tested on: lethal influenza infections; details: mice, lethal influenza infection
Coxackievirus B = details: in vivo; through suppressing viral replication and inflammatory responses
COVID-19 = details: early uncontrolled study

CC(=O)N[C@@H](CS)C(=O)O [NAC, N-acetyl cysteine]
virus-infected subjects developing flu symptoms (influenza): 25% | Survival [1]: 20% | Coxackievirus B-induced myocarditis (Coxackievirus B): effectively alleviates

CCOC(=O)C1=C[C@@H](OC(CC)CC)[C@H](NC(C)=O)[C@@H](N)C1 [oseltamivir]
Survival [1]: 60%

CCN(CCO)CCCC(C)Nc1ccnc2cc(Cl)ccc12 (stereo not drawn) [HCQ, hydroxychloroquine]
Retinal toxicity, share of patients (after 6 years of HCQ use): 1.8% | Retinal toxicity, share of patients (after 11 years of HCQ use): 3.3% | Retinal toxicity, share of patients (after 16 years of HCQ use): 11.5%

Tocilizumab: interleukin 6 (IL-6) receptor antibody
fever (COVID-19): rapidly reduction in fever | oxygenation (COVID-19): improvement in oxygenation
